# Reference: ChEMBL document CHEMBL1133032, “Combinatorial approach to lead optimization of a novel hexapeptide with antifungal activity” (Bioorg Med Chem Lett, 2000)
# pIC50: −log10 of the molar value. Square brackets hold non-standard residues; d marks the D form. Peptide text beside a SMILES is read from it.
# System: Cryptococcus neoformans
# Test: Lowest concentration of compound that substantially inhibited the growth of Cryptococcus neoformans after 48 hr
# Assay type: functional
row,Structure (SMILES),MIC
1,CC[C@H](C)[C@H](NC(=O)[C@@H](Cc1ccccc1)NC(=O)[C@@H](Cc1c[nH]c2ccccc12)NC(=O)[C@@H](N)CCCN=C(N)N)C(=O)N[C@H](Cc1ccccc1)C(=O)N[C@@H](CCCCN)C(N)=O [listing 1 of 2 here],6.92 µM
2,CC[C@H](C)[C@H](NC(=O)[C@@H](Cc1ccccc1)NC(=O)[C@@H](Cc1c[nH]c2ccccc12)NC(=O)[C@@H](N)CCCN=C(N)N)C(=O)N[C@H](Cc1ccccc1)C(=O)NCC(N)=O [listing 1 of 2 here],15.2 µM
3,CC[C@H](C)[C@H](NC(=O)[C@@H](Cc1ccccc1)NC(=O)[C@@H](Cc1c[nH]c2ccccc12)NC(=O)[C@@H](N)CCCN=C(N)N)C(=O)N[C@H](Cc1ccccc1)C(=O)N[C@@H](Cc1ccc(O)cc1)C(N)=O [listing 1 of 2 here],13.4 µM
4,CC[C@H](C)[C@H](NC(=O)[C@@H](Cc1ccccc1)NC(=O)[C@@H](Cc1c[nH]c2ccccc12)NC(=O)[C@@H](N)CCCN=C(N)N)C(=O)N[C@H](Cc1ccccc1)C(=O)N[C@@H](Cc1c[nH]c2ccccc12)C(N)=O [listing 1 of 2 here],13.1 µM
5,CC[C@H](C)[C@H](NC(=O)[C@@H](Cc1ccccc1)NC(=O)[C@@H](Cc1c[nH]c2ccccc12)NC(=O)[C@@H](N)CCCN=C(N)N)C(=O)N[C@H](Cc1ccccc1)C(=O)N[C@H](C(N)=O)C(C)C [listing 1 of 2 here],14.4 µM
6,CC[C@H](C)[C@H](NC(=O)[C@@H](Cc1ccccc1)NC(=O)[C@@H](Cc1c[nH]c2ccccc12)NC(=O)[C@@H](N)CCCN=C(N)N)C(=O)N[C@H](Cc1ccccc1)C(=O)N[C@@H](CO)C(N)=O [listing 1 of 2 here],14.6 µM
7,CC[C@H](C)[C@H](NC(=O)[C@@H](Cc1ccccc1)NC(=O)[C@@H](Cc1c[nH]c2ccccc12)NC(=O)[C@@H](N)CCCN=C(N)N)C(=O)N[C@H](Cc1ccccc1)C(=O)N[C@@H](CCCN=C(N)N)C(N)=O [listing 1 of 2 here],6.71 µM
8,CC[C@H](C)[C@H](NC(=O)[C@@H](Cc1ccccc1)NC(=O)[C@@H](Cc1c[nH]c2ccccc12)NC(=O)[C@@H](N)CCCN=C(N)N)C(=O)N[C@H](Cc1ccccc1)C(=O)N[C@@H](CCC(N)=O)C(N)=O [listing 1 of 2 here],55.9 µM
9,CC[C@H](C)[C@H](NC(=O)[C@@H](Cc1ccccc1)NC(=O)[C@@H](Cc1c[nH]c2ccccc12)NC(=O)[C@@H](N)CCCN=C(N)N)C(=O)N[C@H](Cc1ccccc1)C(=O)N1CCC[C@H]1C(N)=O [listing 1 of 2 here],28.9 µM
10,CC[C@H](C)[C@H](NC(=O)[C@@H](Cc1ccccc1)NC(=O)[C@@H](Cc1c[nH]c2ccccc12)NC(=O)[C@@H](N)CCCN=C(N)N)C(=O)N[C@H](Cc1ccccc1)C(=O)N[C@@H](CC(N)=O)C(N)=O [listing 1 of 2 here],14.2 µM
11,CC[C@H](C)[C@H](NC(=O)[C@@H](Cc1ccccc1)NC(=O)[C@@H](Cc1c[nH]c2ccccc12)NC(=O)[C@@H](N)CCCN=C(N)N)C(=O)N[C@H](Cc1ccccc1)C(=O)N[C@@H](CCSC)C(N)=O [listing 1 of 2 here],27.8 µM
12,CC[C@H](C)[C@H](NC(=O)[C@@H](Cc1ccccc1)NC(=O)[C@@H](Cc1c[nH]c2ccccc12)NC(=O)[C@@H](N)CCCN=C(N)N)C(=O)N[C@H](Cc1ccccc1)C(=O)N[C@@H](CC(C)C)C(N)=O [listing 1 of 2 here],7.04 µM
13,CC[C@H](C)[C@H](NC(=O)[C@@H](Cc1ccccc1)NC(=O)[C@@H](Cc1c[nH]c2ccccc12)NC(=O)[C@@H](N)CCCN=C(N)N)C(=O)N[C@H](Cc1ccccc1)C(=O)N[C@@H](Cc1ccccc1)C(N)=O [listing 1 of 2 here],13.7 µM
14,CC[C@H](C)[C@H](NC(=O)[C@@H](Cc1ccccc1)NC(=O)[C@@H](Cc1c[nH]c2ccccc12)NC(=O)[C@@H](N)CCCN=C(N)N)C(=O)N[C@H](Cc1ccccc1)C(=O)N[C@@H](CCC(=O)O)C(N)=O [listing 1 of 2 here],55.8 µM
15,CC[C@H](C)[C@H](NC(=O)[C@@H](Cc1ccccc1)NC(=O)[C@@H](Cc1c[nH]c2ccccc12)NC(=O)[C@@H](N)CCCN=C(N)N)C(=O)N[C@H](Cc1ccccc1)C(=O)N[C@@H](CC(=O)O)C(N)=O [listing 1 of 2 here],113 µM
16,CC[C@H](C)[C@H](NC(=O)[C@@H](Cc1ccccc1)NC(=O)[C@@H](Cc1c[nH]c2ccccc12)NC(=O)[C@@H](N)CCCN=C(N)N)C(=O)N[C@H](Cc1ccccc1)C(=O)N[C@@H](C)C(N)=O [listing 1 of 2 here],14.9 µM
17,CC[C@H](C)[C@H](NC(=O)[C@@H](Cc1ccccc1)NC(=O)[C@@H](NC(=O)[C@@H](Cc1ccccc1)NC(=O)[C@@H](Cc1c[nH]c2ccccc12)NC(=O)[C@@H](N)CCCN=C(N)N)[C@@H](C)CC)C(N)=O [listing 1 of 2 here],28.4 µM
18,CC[C@H](C)[C@H](NC(=O)[C@@H](Cc1ccccc1)NC(=O)[C@@H](Cc1c[nH]c2ccccc12)NC(=O)[C@@H](N)CCCN=C(N)N)C(=O)N[C@H](Cc1ccccc1)C(=O)N[C@H](C(N)=O)[C@@H](C)O [listing 1 of 2 here],14.4 µM
19,NCCCC[C@H](NC(=O)[C@@H](Cc1ccccc1)NC(=O)[C@H](Cc1ccccc1)NC(=O)[C@@H](Cc1ccccc1)NC(=O)[C@@H](Cc1c[nH]c2ccccc12)NC(=O)[C@@H](N)Cc1c[nH]cn1)C(N)=O (H-H[dW][dF]F[dF]K-NH2),6.81 µM
20,CC[C@H](C)[C@H](NC(=O)[C@@H](Cc1ccccc1)NC(=O)[C@@H](Cc1c[nH]c2ccccc12)NC(=O)[C@@H](N)CCCN=C(N)N)C(=O)N[C@H](Cc1ccccc1)C(=O)N[C@@H](Cc1c[nH]cn1)C(N)=O (H-R[dW][dF]I[dF]H-NH2) [listing 1 of 2 here],6.85 µM

# System: Candida albicans
# Test: Antifungal activity against Candida albicans using twofold microbroth dilution technique.
# Assay type: functional, organism-based
row,Structure (SMILES),pIC50
1,CC[C@H](C)[C@H](NC(=O)[C@@H](Cc1ccccc1)NC(=O)[C@@H](Cc1c[nH]c2ccccc12)NC(=O)[C@@H](N)CCCN=C(N)N)C(=O)N[C@H](Cc1ccccc1)C(=O)N[C@@H](CCCCN)C(N)=O [listing 2 of 2 here],4.84
2,CC[C@H](C)[C@H](NC(=O)[C@@H](Cc1ccccc1)NC(=O)[C@@H](Cc1c[nH]c2ccccc12)NC(=O)[C@@H](N)CCCN=C(N)N)C(=O)N[C@H](Cc1ccccc1)C(=O)NCC(N)=O [listing 2 of 2 here],4.47
3,CC[C@H](C)[C@H](NC(=O)[C@@H](Cc1ccccc1)NC(=O)[C@@H](Cc1c[nH]c2ccccc12)NC(=O)[C@@H](N)CCCN=C(N)N)C(=O)N[C@H](Cc1ccccc1)C(=O)N[C@@H](Cc1ccc(O)cc1)C(N)=O [listing 2 of 2 here],4.80
4,CC[C@H](C)[C@H](NC(=O)[C@@H](Cc1ccccc1)NC(=O)[C@@H](Cc1c[nH]c2ccccc12)NC(=O)[C@@H](N)CCCN=C(N)N)C(=O)N[C@H](Cc1ccccc1)C(=O)N[C@@H](Cc1c[nH]c2ccccc12)C(N)=O [listing 2 of 2 here],4.60
5,CC[C@H](C)[C@H](NC(=O)[C@@H](Cc1ccccc1)NC(=O)[C@@H](Cc1c[nH]c2ccccc12)NC(=O)[C@@H](N)CCCN=C(N)N)C(=O)N[C@H](Cc1ccccc1)C(=O)N[C@H](C(N)=O)C(C)C [listing 2 of 2 here],< 4.55
6,CC[C@H](C)[C@H](NC(=O)[C@@H](Cc1ccccc1)NC(=O)[C@@H](Cc1c[nH]c2ccccc12)NC(=O)[C@@H](N)CCCN=C(N)N)C(=O)N[C@H](Cc1ccccc1)C(=O)N[C@@H](CO)C(N)=O [listing 2 of 2 here],< 4.83
7,CC[C@H](C)[C@H](NC(=O)[C@@H](Cc1ccccc1)NC(=O)[C@@H](Cc1c[nH]c2ccccc12)NC(=O)[C@@H](N)CCCN=C(N)N)C(=O)N[C@H](Cc1ccccc1)C(=O)N[C@@H](CCCN=C(N)N)C(N)=O [listing 2 of 2 here],< 4.90
8,CC[C@H](C)[C@H](NC(=O)[C@@H](Cc1ccccc1)NC(=O)[C@@H](Cc1c[nH]c2ccccc12)NC(=O)[C@@H](N)CCCN=C(N)N)C(=O)N[C@H](Cc1ccccc1)C(=O)N[C@@H](CCC(N)=O)C(N)=O [listing 2 of 2 here],4.52
9,CC[C@H](C)[C@H](NC(=O)[C@@H](Cc1ccccc1)NC(=O)[C@@H](Cc1c[nH]c2ccccc12)NC(=O)[C@@H](N)CCCN=C(N)N)C(=O)N[C@H](Cc1ccccc1)C(=O)N1CCC[C@H]1C(N)=O [listing 2 of 2 here],4.29
10,CC[C@H](C)[C@H](NC(=O)[C@@H](Cc1ccccc1)NC(=O)[C@@H](Cc1c[nH]c2ccccc12)NC(=O)[C@@H](N)CCCN=C(N)N)C(=O)N[C@H](Cc1ccccc1)C(=O)N[C@@H](CC(N)=O)C(N)=O [listing 2 of 2 here],< 4.83
11,CC[C@H](C)[C@H](NC(=O)[C@@H](Cc1ccccc1)NC(=O)[C@@H](Cc1c[nH]c2ccccc12)NC(=O)[C@@H](N)CCCN=C(N)N)C(=O)N[C@H](Cc1ccccc1)C(=O)N[C@@H](CCSC)C(N)=O [listing 2 of 2 here],4.61
12,CC[C@H](C)[C@H](NC(=O)[C@@H](Cc1ccccc1)NC(=O)[C@@H](Cc1c[nH]c2ccccc12)NC(=O)[C@@H](N)CCCN=C(N)N)C(=O)N[C@H](Cc1ccccc1)C(=O)N[C@@H](CC(C)C)C(N)=O [listing 2 of 2 here],4.83
13,CC[C@H](C)[C@H](NC(=O)[C@@H](Cc1ccccc1)NC(=O)[C@@H](Cc1c[nH]c2ccccc12)NC(=O)[C@@H](N)CCCN=C(N)N)C(=O)N[C@H](Cc1ccccc1)C(=O)N[C@@H](Cc1ccccc1)C(N)=O [listing 2 of 2 here],4.86
14,CC[C@H](C)[C@H](NC(=O)[C@@H](Cc1ccccc1)NC(=O)[C@@H](Cc1c[nH]c2ccccc12)NC(=O)[C@@H](N)CCCN=C(N)N)C(=O)N[C@H](Cc1ccccc1)C(=O)N[C@@H](CCC(=O)O)C(N)=O [listing 2 of 2 here],< 4.55
15,CC[C@H](C)[C@H](NC(=O)[C@@H](Cc1ccccc1)NC(=O)[C@@H](Cc1c[nH]c2ccccc12)NC(=O)[C@@H](N)CCCN=C(N)N)C(=O)N[C@H](Cc1ccccc1)C(=O)N[C@@H](CC(=O)O)C(N)=O [listing 2 of 2 here],< 4.83
16,CC[C@H](C)[C@H](NC(=O)[C@@H](Cc1ccccc1)NC(=O)[C@@H](Cc1c[nH]c2ccccc12)NC(=O)[C@@H](N)CCCN=C(N)N)C(=O)N[C@H](Cc1ccccc1)C(=O)N[C@@H](C)C(N)=O [listing 2 of 2 here],< 4.83
17,CC[C@H](C)[C@H](NC(=O)[C@@H](Cc1ccccc1)NC(=O)[C@@H](NC(=O)[C@@H](Cc1ccccc1)NC(=O)[C@@H](Cc1c[nH]c2ccccc12)NC(=O)[C@@H](N)CCCN=C(N)N)[C@@H](C)CC)C(N)=O [listing 2 of 2 here],4.34
18,CC[C@H](C)[C@H](NC(=O)[C@@H](Cc1ccccc1)NC(=O)[C@@H](Cc1c[nH]c2ccccc12)NC(=O)[C@@H](N)CCCN=C(N)N)C(=O)N[C@H](Cc1ccccc1)C(=O)N[C@H](C(N)=O)[C@@H](C)O [listing 2 of 2 here],< 4.83
19,NCCCC[C@H](NC(=O)[C@@H](Cc1ccccc1)NC(=O)[C@H](Cc1ccccc1)NC(=O)[C@@H](Cc1ccccc1)NC(=O)[C@@H](Cc1c[nH]c2ccccc12)NC(=O)[C@@H](N)Cc1c[nH]cn1)C(N)=O (H-H[dW][dF]F[dF]K-NH2),4.54
20,CC[C@H](C)[C@H](NC(=O)[C@@H](Cc1ccccc1)NC(=O)[C@@H](Cc1c[nH]c2ccccc12)NC(=O)[C@@H](N)CCCN=C(N)N)C(=O)N[C@H](Cc1ccccc1)C(=O)N[C@@H](Cc1c[nH]cn1)C(N)=O (H-R[dW][dF]I[dF]H-NH2) [listing 2 of 2 here],5.16
